From a melting point compilation (Tetko et al.; mined from patent text by program, amines drawn as free bases though some values may be those of a salt) come the findings set out here.

As a reminder, the melting point is the temperature, or range, at which the solid turns liquid.

For `O=C(NC1N=C(c2ccccc2F)c2ccccc2N(CC(=O)N2CC3CCC(CC3)C2)C1=O)c1cccc(O)c1` (racemic), the melting point is > 250 °C. Next, `COC(=O)N1C(=O)[C@H](O)[C@@H]1c1ccccc1`: 91 to 92 °C; `O=S(=O)(c1[nH]c(-c2ccc(Cl)cc2)c(S(=O)(=O)C(F)(F)F)c1Br)C(F)(F)F`: 115 to 135 °C.

In the case of `CCNC(=S)NC1=Nc2ccccc2CS1`, the melting point is 191 to 196 °C. The same measure for `O=C(c1ccccc1Cl)c1ccc(O)c(Cl)c1Cl`: 74 to 77 °C; for `CCOC(=O)NCCC12CC(c3ccccc31)c1ccccc12`: 122 to 123 °C. The same measure for `CCOC(=O)c1c(CN(CC)CC)nc2sc3c(c2c1-c1ccc(OC)c(OC)c1)CN(C(=O)c1ccc(Cl)cc1)CC3`: 91 to 92 °C. Consider `Nc1nsnc1-c1ccc(Cl)cc1`, for which the melting point lay in the range of 132 to 133 °C. The compound `Nc1ccc(CCc2ccc(Cl)c(Cl)c2)cc1` returned a melting point of 68 to 70 °C. The same measure for `COC(=O)Nc1cn2nc(OCc3cc(OC)c(OC)c(OC)c3)ccc2n1`: 213 to 215 °C; for `CCCCn1c(=O)c2c(ncn2S(=O)(=O)c2ccc(C(C)(C)C)cc2)n(CCCC)c1=O`: 105 to 107 °C; for `Cc1ccc(S(=O)(=O)N2CCCC2c2ccc(Cl)c(C)c2)cc1` (racemic): 103 °C. `Cc1ccc(C(=C(C=CC=O)c2nnnn2C)c2ccc(C)cc2F)c(F)c1` gave a melting point of 88 to 108 °C. The same measure for `O=C(c1ccccc1)c1ccc(NC(=O)N2CCC3(CC2)OC(=O)c2ccccc23)cc1`: 161 to 163 °C; for `CN(C)C(=O)Cn1nnnc1S`: 204 to 205 °C; for `COc1cc2c(cc1O)CCN(Cc1ccccn1)C2`: 137 to 138 °C. Regarding `Cc1ccc(NC(=S)Nc2ncccc2OCc2c(F)cccc2Cl)cc1`, the melting point lay within 138 to 140 °C. Next, `O=C1CCc2c1cccc2C(=O)c1ccccc1`: 86 to 88 °C; `c1ccc(C2Nc3c4c(nc5ccccc35)CCCC4O2)cc1` (stereo not drawn): 225 to 235 °C; `COC(=O)c1ccc(C)nc1Oc1nc(OC)cc(OC)n1`: 99 to 103 °C.

`Ic1ccc(Cc2cc(I)c(Cc3ccc(I)cc3)cc2I)cc1` returned a melting point of 210 to 213 °C. Next, `CS(=O)(=O)c1ccc(-c2cnn(-c3cccc(Cl)c3)c(=O)c2Sc2ccccn2)cc1`: 110 to 114 °C; `CCc1nc2cc(OC)c(OC)cc2c(-c2ccc(OC)c(OC)c2)c1C(=O)O`: 264 to 267 °C; `O=C1C(=O)c2ccccc2C2=C1SCC1(CCN(c3cnccn3)CC1)O2`: 255 to 256 °C. The same measure for `Cc1c(CCc2ccc3nc(N)oc3c2)nc2cc(CCl)ccn12`: > 300 °C.

On to `CC(=O)OC1=CC(NC(=O)CCc2ccc(Cl)cc2Cl)C(=O)N(C)c2ccccc21` (stereo not drawn), for which the melting point lay within 142 to 144 °C.

`CCOC(=O)c1cccc(-c2ccc3c(n2)C(Oc2ccc(Cl)cc2Cl)CC3)c1` (stereo not drawn): the melting point lay within 129 to 130 °C. As for `COc1cccc2[nH]c3c(c12)C(=O)N=NC3=O`, the melting point is > 260 °C. The same measure for `C=CCc1cc(OC)c(OC)cc1CC(C#N)=COC`: 77 to 79 °C; for `CC1(C)CCCN(C2c3cc4nonc4cc3OC(C)(C)C2O)C1=O` (stereo not drawn): 114 to 115 °C. The same measure for `Cc1cc(C)c(-n2nnc3c(-c4ccccc4C(F)(F)F)nc(C)nc32)c(C)c1`: 139 °C. The same measure for `COc1cc2c(cc1OCCN(C)C)N(C(=O)c1ccc(-c3ccc(-c4noc(C)n4)cc3C)cc1)CC2`: 140 to 141 °C.

`CCNC(=O)n1nc(Oc2ncc(C(F)(F)F)cc2Cl)c(C)c1C` registered a melting point of 124 to 125 °C. In turn, `CNS(=O)(=O)/C=C/c1ccc2c(c1)c(C1CCN(C)CC1)cn2C` gave a melting point of 155 to 159 °C. The compound `CCOC(=O)c1cc(C=O)cn1C` came in with a melting point of 75 to 76 °C. Next, `O=C(O)C1CN(Cc2ccccc2)CCN1Cc1ccccc1` (stereo not drawn): 184 to 185 °C; `Nc1sccc1C(=O)c1ccc(F)cc1`: 178 °C.

In turn, `Clc1ccc(N2CCN(CCCc3c4c(nn3-c3ccccn3)CCCC4)CC2)cc1` showed a melting point of 101 to 103 °C. Take `CCOC(=O)c1oc(I)nc1C`: the melting point lay in the range of 110 to 112 °C. Next, `Oc1cccc2c1CCC(O)C2` (stereo not drawn): 126 to 128 °C; `O=C(O)COc1cccc(CCc2cc(-c3ccccc3)n(-c3ccccc3)n2)c1`: 125 to 127 °C; `Nc1nc2ccc(OS(=O)(=O)c3ccc(F)cc3)cc2[nH]1`: 192 °C. Consider `CC(C)n1nc(-c2ccc(OCCCCl)cc2)c2sccc2c1=O`, for which the melting point is 92 to 94 °C. Next, `CC(C)(C)c1cc(SCCSCCC(=O)O)cc(C(C)(C)C)c1O`: 57.5 °C; `Cc1cc(C(C)(O)c2ccc(C(F)(F)F)cn2)ccc1NC(=O)OC(C)(C)C` (stereo not drawn): 132 to 134 °C; `CC(C)Cn1c(CN)c(-c2ccccc2)c2cc(SCC(N)=O)ccc2c1=O`: 218 to 220 °C.

`Cc1cccc(C(=O)OCC=Cc2ccccc2)c1O` displayed a melting point of 154 °C. With `CCC(CC)C(=O)OCOC(=O)C1=C(S[C@H]2CC[S@@](=O)C2)S[C@@H]2[C@@H]([C@@H](C)O)C(=O)N12`, the melting point worked out at 105 °C. Take `O=C(CNc1c(C(=O)O)[nH]c2cc(F)ccc12)c1ccccc1`: the melting point lay within 142 to 143 °C. Next, `N#CC=C1CCN(c2ccc(N3C[C@H](CNC(=O)C(F)F)OC3=O)cc2F)CC1`: 162 to 164 °C. The same measure for `Cn1nnnc1-c1cn(C)c2cc(Br)ccc2c1=O`: 292 to 294 °C; for `CCOC(=O)C1=C(COCC#CC(O)c2ccccc2)NC(C)=C(C(=O)OC)C1c1cccc(Cl)c1Cl` (stereo not drawn): 160 to 164 °C. Consider `CCCCCCNC(=O)C(CCC(=O)O)NC(=O)C(NC(=O)OC(C)(C)C)C(C)C` (stereo not drawn), for which the melting point was in the range of 63 to 65 °C. The same measure for `O=C(c1ccco1)N1Cc2c(-c3noc(C4CC4)n3)ncn2-c2ccccc21`: 190 to 191 °C; for `NCC(c1ccc(Cl)cc1)C1CCCCCC1O` (mixture of isomers): 92 to 93 °C; for `CNS(=O)(=O)c1ccc(NC=C2C(=O)Nc3ccc4ncsc4c32)cc1CCOCCO`: 165 °C. In turn, `CC[C@H](C)[C@H](NC(=O)NCCC1CCCCC1)C(=O)N[C@H](CO)Cc1c[nH]c2ccccc12` showed a melting point of 182 to 184 °C.

For the compound `O=C1c2c(c(=O)n3nc(-c4ccccc4)cc3n2Cc2ccccc2)CN1Cc1ccccc1`, the melting point lay within 232 to 234 °C. The same measure for `CCC1CC(=S)N(c2ccc3oc(=O)c(N4C(=O)C(CC)CC4=S)cc3c2)C1=O` (stereo not drawn): 128 to 131 °C; for `Cc1cc(C(=O)O)c(C)c2c1S(=O)(=O)CCC2(C)C`: 209 °C; for `CC(=O)Nc1c(C(=O)c2ccccc2)[nH]c2cc([N+](=O)[O-])ccc12`: 234 to 236 °C. The same measure for `CN1CCN(CC2CCN(c3ccc(Nc4ncc5ccc(-c6cccc(S(=O)(=O)NC(C)(C)C)c6)n5n4)cc3)CC2)CC1`: 233 to 235 °C; for `Cc1c2c3c(ccc2nn1C)CCC3=O`: 157 to 159 °C; for `Cc1ccc(N(C)C)cc1C=O`: 64 to 65 °C. The same measure for `CN1CCC(C)(O)C(C)(C)C1Cc1ccccc1` (stereo not drawn): 95 to 103 °C; for `CN(C)C1(c2ccccc2)CCC(CNC(=O)N2CCC(c3c[nH]c4ccccc34)C2)CC1` (stereo not drawn): 103 to 106 °C. For `Fc1ccc(Nc2ncnc3cnc(OC4CCOCC4)nc23)cc1Cl`, the melting point lay within 220 to 222 °C. The compound `CCOC(=O)C(=NOCCBr)c1csc(N)n1` displayed a melting point of 111 to 114 °C. The same measure for `CC(C)(NC(=O)c1cc2c(n(CC3CCCCC3)c1=O)CCCCCC2)C(=O)N(N)S(C)(=O)=O`: 177 to 178 °C; for `CC(OS(C)(=O)=O)C(C)N1C(=O)c2ccccc2C1=O` (stereo not drawn): 67 to 73 °C. Turning to `CC(C)n1nc(-c2nc(-c3cn[nH]c3)c(N)nc2-c2ccccc2)ccc1=O`, the melting point was > 250 °C. Compound `CN1CCN(CCCNc2ncc3cc(-c4c(Cl)cccc4Cl)c(NC(=O)Nc4ccc(Br)cc4)nc3n2)CC1` came in with a melting point of 171 to 175 °C. With `O=C(Nc1cccc(-c2ccnc3c(C(=O)c4cccs4)cnn23)c1)c1c(F)cccc1F`, the melting point fell in the range of 159 to 160 °C.

With `ClCOc1nc(Cl)c(Cl)cc1Cl`, the melting point was in the range of 94 to 96 °C. Regarding `N#CCC(=O)Nc1ccc(-c2nncn2-c2ccc(F)cc2)cc1`, the melting point fell in the range of 223 to 225 °C. Consider `CSC1=Nc2ccc(Cl)cc2C(=O)N(C)C1`, for which the melting point was 124 to 127 °C.

`OCC(CO)Oc1ccc(I)cc1`: the melting point was determined as 90 °C.

On to `Cc1nn(C)c2c1c(=O)n(-c1ccccc1)c1ncccc21`, for which the melting point is > 300 °C.

Compound `CCc1nc(C(=O)OC)c(OC)c(N)c1F` yielded a melting point of 110 to 113 °C. The same measure for `COc1ccc(C(=O)N[C@H]2CCN(C)C[C@H]2c2ccc3c(c2)OCO3)cc1OC` (relative stereo): 193 to 194 °C; for `COCOc1cc(F)ccc1-c1cc(-c2cccc([N+](=O)[O-])c2)c(C#N)c(NC(=O)c2ccno2)n1`: 161 to 162 °C; for `O=C1CNCCN1c1ccc([N+](=O)[O-])cc1`: 150 to 153 °C. As to `O=C(Nc1nc(-c2ccco2)c(-c2ccncc2)s1)c1cc[nH]c(=O)c1`, the melting point is 277 to 281 °C. The compound `CC1CCC(Oc2cc(F)cc(C(=O)Nc3ccc(OCCN4CCOCC4)c4ccccc34)c2)C1` (stereo not drawn) had a melting point of 65 to 66 °C. The same measure for `CNC(=O)CN1CCc2cc(Nc3ncc(Cl)c(Nc4c(F)cccc4C(=O)NC)n3)c(OC)cc2CC1`: 119 to 130 °C. As for `O=C(Oc1cc(OC(=O)c2ccc(O)c(O)c2)c2ccccc2c1)c1ccc(O)c(O)c1`, the melting point fell in the range of 79 to 81 °C. Compound `Cc1cc(Cl)ccc1N=CN(C)SN(c1ccccc1)c1ccccc1` gave a melting point of 78 to 79 °C. Next, `Cc1ncc(CN2CC=C(c3ccc(F)cc3)CC2)c(N)n1`: 176 to 178 °C.
